Data on seven compounds can be found in patent US10745400B2, “Inhibition of BMP signaling, compounds, compositions and uses thereof” (Vanderbilt University, priority 2018, dated 2020).

The target of one data set is T1, ALK2 (R206H) (Homo sapiens, UniProt Q04771, R206H).
T1 sequence (Q04771 21-509 R206H): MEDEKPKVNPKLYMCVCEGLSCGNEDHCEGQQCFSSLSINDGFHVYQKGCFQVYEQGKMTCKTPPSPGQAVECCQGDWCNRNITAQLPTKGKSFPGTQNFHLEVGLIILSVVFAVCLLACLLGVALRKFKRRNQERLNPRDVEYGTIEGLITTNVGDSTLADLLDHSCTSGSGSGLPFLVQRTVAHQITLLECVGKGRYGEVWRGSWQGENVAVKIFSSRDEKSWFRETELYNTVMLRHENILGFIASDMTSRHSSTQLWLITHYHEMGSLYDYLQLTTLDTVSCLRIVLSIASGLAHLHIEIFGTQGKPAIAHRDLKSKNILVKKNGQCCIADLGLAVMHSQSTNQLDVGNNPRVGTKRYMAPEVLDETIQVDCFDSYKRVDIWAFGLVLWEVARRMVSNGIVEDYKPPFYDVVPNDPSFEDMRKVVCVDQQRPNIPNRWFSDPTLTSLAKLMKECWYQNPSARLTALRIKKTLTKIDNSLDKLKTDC
In words: Kinase assay (33P-ATP filter-binding), ALK2 R206H. The following applies: R206H mutant, 20 mM; read-out: Kinase Selectivity ALK2 (R206H, 20 mM). The format is biochemical. The method in brief: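 Substrate in pH 7.5 HEPES buffer (10 mM MgCl2, 1 mM EGTA, 2 mM DTT, 0.1 mM Na3VO4, 1% DMSO); compound preincubated with kinase 20 min at room temperature. Reaction started with 33P-ATP, run 2 h at room temperature; activity measured by P81 filter binding.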

The next data set deals with T2, ALK5 (Homo sapiens, UniProt P36897).
T2 sequence (P36897 34-503): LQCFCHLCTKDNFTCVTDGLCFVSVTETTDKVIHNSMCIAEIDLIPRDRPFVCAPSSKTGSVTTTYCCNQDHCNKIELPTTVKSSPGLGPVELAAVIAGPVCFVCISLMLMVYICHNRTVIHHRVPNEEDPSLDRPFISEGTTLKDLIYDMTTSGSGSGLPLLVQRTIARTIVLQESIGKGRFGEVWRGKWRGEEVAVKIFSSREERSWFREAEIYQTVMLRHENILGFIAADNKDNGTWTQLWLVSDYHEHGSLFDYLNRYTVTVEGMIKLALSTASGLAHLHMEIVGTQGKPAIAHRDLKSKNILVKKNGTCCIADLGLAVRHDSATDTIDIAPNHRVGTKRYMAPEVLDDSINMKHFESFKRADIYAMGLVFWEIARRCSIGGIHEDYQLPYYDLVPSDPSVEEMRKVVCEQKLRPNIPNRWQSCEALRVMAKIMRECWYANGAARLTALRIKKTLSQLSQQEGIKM
In words: Kinase assay (33P-ATP filter-binding), ALK5. Format: biochemical. The following applies: read-out: Kinase Selectivity ALK5. How it is done:
(§1) The kinase assays were carried out briefly as follows. Substrate was prepared in Base Reaction Buffer (20 mM Hepes (pH 7.5), 10 mM MgCl2, 1 mM EGTA, 0.02% Brij35, 0.02 mg/ml BSA, 0.1 mM Na3VO4, 2 mM DTT, 1% DMSO). The indicated kinases was delivered into the substrate solution and allowed to gently mix. Next, the specific compound was delivered in DMSO into the kinase mixture by Acoustic technology (Echo550; nanoliter range), and allowed to incubate for 20 minutes at room temperature. Next, ^33P-ATP was delivered into the reaction mixture to initiate the reaction and allowed to incubate at room temperature. After 2 hours, the reactions were spotted onto P81 ion exchange paper and the kinase activity is detected by the filter-binding method.

The next data set addresses T3, BMPR2 (Homo sapiens, UniProt Q13873).
T3 sequence (Q13873 27-1038): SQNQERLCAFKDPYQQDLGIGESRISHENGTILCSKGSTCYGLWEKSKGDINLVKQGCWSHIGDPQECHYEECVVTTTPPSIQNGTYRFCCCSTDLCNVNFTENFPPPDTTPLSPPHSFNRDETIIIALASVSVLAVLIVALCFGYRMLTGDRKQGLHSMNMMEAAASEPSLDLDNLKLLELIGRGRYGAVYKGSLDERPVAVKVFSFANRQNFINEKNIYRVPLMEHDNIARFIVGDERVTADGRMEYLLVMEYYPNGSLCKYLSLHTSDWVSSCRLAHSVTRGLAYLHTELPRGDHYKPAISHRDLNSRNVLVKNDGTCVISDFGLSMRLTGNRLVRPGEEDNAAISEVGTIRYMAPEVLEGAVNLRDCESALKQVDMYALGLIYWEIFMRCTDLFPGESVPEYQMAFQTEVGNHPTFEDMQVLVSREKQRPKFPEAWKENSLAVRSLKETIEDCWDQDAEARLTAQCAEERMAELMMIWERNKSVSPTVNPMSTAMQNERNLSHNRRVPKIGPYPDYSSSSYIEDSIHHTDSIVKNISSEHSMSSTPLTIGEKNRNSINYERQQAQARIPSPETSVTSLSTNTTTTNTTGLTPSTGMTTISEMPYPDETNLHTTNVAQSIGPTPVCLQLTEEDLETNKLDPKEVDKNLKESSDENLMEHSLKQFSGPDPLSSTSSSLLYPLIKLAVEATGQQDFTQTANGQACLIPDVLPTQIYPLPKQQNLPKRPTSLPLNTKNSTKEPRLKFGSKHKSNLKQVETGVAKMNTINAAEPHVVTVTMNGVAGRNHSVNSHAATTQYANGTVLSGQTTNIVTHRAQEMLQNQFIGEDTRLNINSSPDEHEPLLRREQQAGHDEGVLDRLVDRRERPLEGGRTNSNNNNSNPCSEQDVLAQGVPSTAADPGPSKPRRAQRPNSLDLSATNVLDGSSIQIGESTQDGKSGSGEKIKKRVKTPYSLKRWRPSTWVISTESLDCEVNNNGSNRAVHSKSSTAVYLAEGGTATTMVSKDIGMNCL
In words: Kinase assay (33P-ATP filter-binding), BMPR2. The format is biochemical. The following applies: read-out: Kinase Selectivity BMPR2. How it is done:
as §1

A short description of data set [1]: Intrinsic clearance, human. The format is in vitro ADME. The following applies: human.
A further data set in a line: Protein binding, mouse. Format: in vitro ADME.
Where [2] appears, read: CL-Hep, value in parentheses, read-out: Intrinsic Clearance Human (CL-Hep).
Setting [3] is: read-out: Intrinsic Clearance Human.

Like-named read-outs stand apart in the source and are kept apart here.

Regarding `Cc1cc(-c2cnc3cc(-c4ccc(C5COC6(CCNCC6)CN5)cc4)ccn23)c2cc(F)cc(F)c2n1` (centres unmarked) [Compound 16], the IC50 on ALK2 (R206H) was less than 5.1 nM; on ALK5 it was 1140 nM; on BMPR2 it was more than 100 µM. Moreover, the CLint scaled was less than 10.7 mL/min/kg in data set [1] (setting [2]) and less than 23.1 mL/min/kg in data set [1] (setting [3]). In addition, in “Protein binding, mouse”, the “Protein Binding (% Free) Mouse” value amounted to 4.7 % Free.
With `Cc1cc(-c2cnc3cc(-c4ccc(C5COCC(C)N5)cc4)ccn23)c2cc(F)cc(F)c2n1` (centres unmarked) [Compound 23], the IC50 is less than 5.1 nM on ALK2 (R206H), 354 nM on ALK5 and more than 100 µM on BMPR2. The CLint scaled in data set [1] (setting [2]) worked out at 17.5 mL/min/kg; in data set [1] (setting [3]) it was 139 mL/min/kg. Also, the “Protein Binding (% Free) Mouse” value in “Protein binding, mouse” came to 2.85 % Free.
For `Cc1cc(-c2cnc3cc(-c4ccc(C5COC6(CCNC6)CN5)cc4)ccn23)c2cc(F)cc(F)c2n1` (centres unmarked) [Compound 27], the IC50 on ALK2 (R206H) is 326 nM; on ALK5, 3290 nM; on BMPR2, more than 100 µM. Moreover, the results for the CLint scaled in data set [1] (setting [2]) and in data set [1] (setting [3]) were less than 10.7 mL/min/kg and less than 23.1 mL/min/kg, respectively. In addition, the “Protein Binding (% Free) Mouse” value in the data set “Protein binding, mouse” is 3.9 % Free.
As to `c1cnc2nccc(-c3cnc4cc(-c5ccc(C6CNCCN6)cc5)ccn34)c2c1` (centres unmarked) [Compound 32], the IC50 worked out at 15.8 nM on ALK2 (R206H), 310 nM at ALK5 and 54.4 µM on BMPR2. Further, the CLint scaled in data set [1] (setting [2]) was less than 11 mL/min/kg; in data set [1] (setting [3]) it was less than 23.1 mL/min/kg. In “Protein binding, mouse”, the “Protein Binding (% Free) Mouse” value was 33.9 % Free.
Turning to `c1cc(-c2cnc3cc(-c4ccc(C5CNCCN5)cc4)ccn23)c2cccnc2c1` (centres unmarked) [Compound 33], the results for the IC50 on ALK2 (R206H), on ALK5 and at BMPR2 were less than 5.1 nM, 1140 nM and more than 100 µM, respectively. For the same compound, the CLint scaled was less than 11 mL/min/kg in data set [1] (setting [2]) and less than 23.1 mL/min/kg in data set [1] (setting [3]). The “Protein Binding (% Free) Mouse” value in the data set “Protein binding, mouse” was 8.4 % Free.
Regarding `O=C1CNC(=O)C(c2ccc(-c3ccn4c(-c5cccc6ncccc56)cnc4c3)cc2)N1` (centres unmarked) [Compound 36], the results for the IC50 on ALK2 (R206H), at ALK5 and on BMPR2 were less than 5.1 nM, 717 nM and more than 100 µM, respectively.
As to `NS(=O)(=O)c1ccc(-c2cnc3cc(-c4ccc(C5CNCCN5)cc4)ccn23)c2ccccc12` (centres unmarked) [Compound 37], the IC50 on ALK2 (R206H) was 13.2 nM; on ALK5, 456 nM; on BMPR2, more than 100 µM. Also, the CLint scaled in data set [1] (setting [2]) is less than 11 mL/min/kg; in data set [1] (setting [3]) it was less than 23.1 mL/min/kg.
